From ChEMBL document CHEMBL1201862, “PubChem BioAssay data set” (2004)
Activity calls are given as the source filed them.

Assays:
[1] = molecular target: T1, Probable nicotinate-nucleotide adenylyltransferase (Staphylococcus aureus (strain N315), UniProt P65502); assay type: functional, Staphylococcus aureus subsp. aureus N315;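 for IC50 Mean: confirmatory dose-response retesting of NadD inhibitor hits first found in an ultra-high-throughput screen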
[2] = molecular target: T2, Small ubiquitin-related modifier 1 (Homo sapiens, UniProt P63165); experiment: SUMO1 protein interaction blockers, potency – biochemical, fluorescence polarization, uHTS hits, dose response (AID 624382); assay type: functional; conditions: read-out: IC50_Mean
T2 sequence (P63165 whole entry): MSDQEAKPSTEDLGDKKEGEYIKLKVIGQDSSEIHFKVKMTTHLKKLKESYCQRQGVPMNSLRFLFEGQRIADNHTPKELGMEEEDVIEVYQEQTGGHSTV

[3] = molecular target: T1, Probable nicotinate-nucleotide adenylyltransferase; assay type: functional, Staphylococcus aureus subsp. aureus N315; conditions: read-out: IC50_Mean
[4] = molecular target: T3, Small ubiquitin-related modifier 2 (Homo sapiens, UniProt P61956); experiment: SUMO2 binding disruption by SUMO1 hits – biochemical, FRET, human SUMO2, uHTS hits, selectivity assay for SUMO1 interaction inhibitor project, dose response (AID 624384); assay type: functional; conditions: read-out: IC50_Mean
T3 sequence (P61956 whole entry): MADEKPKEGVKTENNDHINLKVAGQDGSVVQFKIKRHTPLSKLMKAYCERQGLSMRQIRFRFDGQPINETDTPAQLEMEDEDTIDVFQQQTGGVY

[5] = molecular target: T3, Small ubiquitin-related modifier 2; experiment: disruption of SUMO2 interaction with SIM peptide – biochemical, fluorescence polarization, uHTS hits, selectivity assay for SUMO1 interaction inhibitor project, dose response (AID 624385); assay type: functional; conditions: read-out: IC50_Mean
[6] = molecular target: DNA (cytosine-5)-methyltransferase 1 (Homo sapiens, UniProt P26358); experiment: inhibition of DNA methylation by DNMT1 – biochemical, fluorescent molecular beacon, confirmation (AID 602386); assay type: functional
Chain of DNA (cytosine-5)-methyltransferase 1 (P26358 whole entry): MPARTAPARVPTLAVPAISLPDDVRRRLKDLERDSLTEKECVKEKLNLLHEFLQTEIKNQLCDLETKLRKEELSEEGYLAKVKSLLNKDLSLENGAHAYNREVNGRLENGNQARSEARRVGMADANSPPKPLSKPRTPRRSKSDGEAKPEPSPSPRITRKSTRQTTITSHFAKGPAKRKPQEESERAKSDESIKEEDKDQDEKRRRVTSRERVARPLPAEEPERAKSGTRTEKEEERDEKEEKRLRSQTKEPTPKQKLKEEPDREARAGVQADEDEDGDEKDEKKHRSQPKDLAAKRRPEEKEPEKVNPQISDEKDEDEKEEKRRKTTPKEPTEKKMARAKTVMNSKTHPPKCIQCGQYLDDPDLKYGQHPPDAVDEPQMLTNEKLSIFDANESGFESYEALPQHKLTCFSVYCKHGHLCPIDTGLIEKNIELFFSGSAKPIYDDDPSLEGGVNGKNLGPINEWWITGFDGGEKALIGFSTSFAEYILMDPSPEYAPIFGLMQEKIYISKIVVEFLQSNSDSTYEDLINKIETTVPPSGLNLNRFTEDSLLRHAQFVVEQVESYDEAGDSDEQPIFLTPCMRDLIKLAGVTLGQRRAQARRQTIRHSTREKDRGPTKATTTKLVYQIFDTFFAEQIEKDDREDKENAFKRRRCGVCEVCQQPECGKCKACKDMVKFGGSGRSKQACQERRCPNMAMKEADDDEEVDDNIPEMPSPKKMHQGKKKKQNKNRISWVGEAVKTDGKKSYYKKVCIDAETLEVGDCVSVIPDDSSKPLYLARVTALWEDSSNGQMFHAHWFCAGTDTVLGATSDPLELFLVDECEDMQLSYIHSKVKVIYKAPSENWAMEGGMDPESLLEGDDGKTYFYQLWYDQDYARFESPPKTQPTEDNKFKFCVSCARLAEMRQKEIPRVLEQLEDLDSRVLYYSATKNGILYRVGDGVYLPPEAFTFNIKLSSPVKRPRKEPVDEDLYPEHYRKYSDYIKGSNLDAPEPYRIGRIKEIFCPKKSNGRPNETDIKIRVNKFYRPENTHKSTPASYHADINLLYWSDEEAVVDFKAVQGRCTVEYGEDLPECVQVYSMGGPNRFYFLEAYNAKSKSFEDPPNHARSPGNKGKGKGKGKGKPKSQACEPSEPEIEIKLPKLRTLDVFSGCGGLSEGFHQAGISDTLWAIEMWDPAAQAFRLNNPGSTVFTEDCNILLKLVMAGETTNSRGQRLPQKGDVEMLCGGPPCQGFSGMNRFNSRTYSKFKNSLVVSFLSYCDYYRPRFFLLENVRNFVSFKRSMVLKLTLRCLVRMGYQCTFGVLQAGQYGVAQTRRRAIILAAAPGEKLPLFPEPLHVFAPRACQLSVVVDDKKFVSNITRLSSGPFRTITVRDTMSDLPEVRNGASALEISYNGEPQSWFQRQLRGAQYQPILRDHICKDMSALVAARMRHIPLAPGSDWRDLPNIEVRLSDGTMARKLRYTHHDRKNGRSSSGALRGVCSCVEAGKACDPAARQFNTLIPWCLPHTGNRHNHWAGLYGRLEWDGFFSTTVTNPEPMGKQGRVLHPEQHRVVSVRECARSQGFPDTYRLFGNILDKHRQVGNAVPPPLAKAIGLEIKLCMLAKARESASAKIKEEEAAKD

[7] = molecular target: T2, Small ubiquitin-related modifier 1; experiment: SUMO1 protein-protein binding blockers, potency – biochemical, FRET, dose response (AID 624383); assay type: functional; conditions: read-out: IC50_Mean
Beta-lactamase [8] = molecular target: T4, Beta-lactamase (Pseudomonas aeruginosa, UniProt Q79MP6); experiment: […] counterscreen for selective VIM-2 inhibitors: dose response biochemical high throughput screening assay to identify inhibitors of IMP-1 metallo-beta-lactamase.
T4 sequence (Q79MP6 whole entry): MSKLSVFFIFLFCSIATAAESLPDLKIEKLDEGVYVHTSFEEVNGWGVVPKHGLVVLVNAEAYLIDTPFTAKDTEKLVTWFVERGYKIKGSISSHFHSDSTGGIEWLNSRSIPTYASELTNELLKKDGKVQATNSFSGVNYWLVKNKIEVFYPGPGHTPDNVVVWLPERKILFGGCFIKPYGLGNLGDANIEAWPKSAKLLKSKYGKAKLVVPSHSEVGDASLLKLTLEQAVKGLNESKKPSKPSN

Beta-lactamase [9] = molecular target: Beta-lactamase (Salmonella choleraesuis (strain SC-B67), UniProt Q5J463); experiment: Epi-absorbance-based counterscreen for selective VIM-2 inhibitors: dose response biochemical high throughput screening assay to identify inhibitors of TEM-1 serine-beta-lactamase.
Chain of Beta-lactamase (Salmonella choleraesuis (strain SC-B67), UniProt Q5J463) (Q5J463 whole entry): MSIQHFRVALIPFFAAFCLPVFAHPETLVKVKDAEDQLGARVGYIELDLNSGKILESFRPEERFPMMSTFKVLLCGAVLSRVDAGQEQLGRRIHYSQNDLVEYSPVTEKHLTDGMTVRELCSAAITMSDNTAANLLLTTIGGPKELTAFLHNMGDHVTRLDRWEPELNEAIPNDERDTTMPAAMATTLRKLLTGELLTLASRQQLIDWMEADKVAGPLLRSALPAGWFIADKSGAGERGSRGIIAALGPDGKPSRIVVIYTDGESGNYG

Beta-lactamase [10] = molecular target: T4, Beta-lactamase; experiment: inhibition of IMP-1 beta-lactamase activity – biochemical, epi-absorbance, selectivity assay for VIM-2 inhibitor project, dose response (AID 1920)
Beta Lactamase [11] = molecular target: T5, Beta Lactamase (Pseudomonas aeruginosa, UniProt Q932Y6); experiment: concentration-dependent VIM-2 enzyme inhibition – biochemical, epi-absorbance readout, selective inhibitors, dose response (AID 1919)
T5 sequence (Q932Y6 whole entry): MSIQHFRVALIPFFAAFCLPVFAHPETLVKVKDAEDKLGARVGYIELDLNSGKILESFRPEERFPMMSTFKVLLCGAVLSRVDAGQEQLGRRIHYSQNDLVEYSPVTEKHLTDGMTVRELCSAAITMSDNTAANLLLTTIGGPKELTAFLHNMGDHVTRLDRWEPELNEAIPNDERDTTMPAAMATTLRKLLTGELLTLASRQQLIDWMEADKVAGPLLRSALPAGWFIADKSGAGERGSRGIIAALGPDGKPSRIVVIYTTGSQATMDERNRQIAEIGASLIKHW

Beta Lactamase [12] = molecular target: T5, Beta Lactamase; experiment: VIM-2 CCF2 hydrolysis inhibition, assay artifact filter – biochemical, FRET readout, CCF2 substrate, artefact control for selective VIM-2 inhibitor project, dose response (AID 1926)
[13] = toxicity toward HepG2 liver cells – cell-based, plate reader, cherry-pick, antagonist series, cytotoxicity control, dose response (AID 743416); assay type: functional
[14] = intracellular Trypanosoma cruzi inhibitors in host cells – cell-based, plate reader, cherry-pick samples, set 3, dose response (AID 651818); assay type: functional;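 note: compounds incubated with infected cells for about four days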
[15] = blockade of melanocortin 4 receptor signaling – cell-based, plate reader, cherry pick, counter-screen for LGR2 antagonist project, dose response (AID 743444); assay type: functional;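 note: transfected HEK 293 cells stimulated with alpha-MSH peptide; potency of inhibitors of the alpha-MSH evoked signal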
[16] = blockers of bursicon-stimulated LGR2 cAMP reporter – cell-based, HEK293, CRE-luciferase reporter, cherry pick, set 2, dose response (AID 743343); assay type: functional;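 note: transfected cells were stimulated with diluted bursicon conditioned medium after compound addition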
[17] = A549 cell cytotoxicity, dose response, cytotoxicity control, plate reader, cherry-pick, antagonist series (AID 743412); assay type: functional, cell-based
[18] = viability loss in HEK293 cells – cell-based, plate reader, cherry-picked samples, cytotoxicity control, dose response (AID 743446); assay type: functional
Vero = experiment: viability loss in Vero cells – cell-based, plate reader, cherry-pick samples, cytotoxicity control, dose response (AID 687020); assay type: functional; conditions: Chlorocebus sabaeus
Protein Wnt-3a = Protein Wnt-3a (Mus musculus, UniProt P27467); experiment: antagonism of Wnt3a pathway luciferase reporter – Wnt-LIGHT cells, luminescence, selectivity assay for Gli-SUFU antagonist project, dose response (AID 651570); assay type: functional; conditions: read-out: IC50_Mean;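 note: Wnt-LIGHT reporter cells stimulated with conditioned medium from Wnt3a-producing cells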
Chain of Protein Wnt-3a (P27467 whole entry): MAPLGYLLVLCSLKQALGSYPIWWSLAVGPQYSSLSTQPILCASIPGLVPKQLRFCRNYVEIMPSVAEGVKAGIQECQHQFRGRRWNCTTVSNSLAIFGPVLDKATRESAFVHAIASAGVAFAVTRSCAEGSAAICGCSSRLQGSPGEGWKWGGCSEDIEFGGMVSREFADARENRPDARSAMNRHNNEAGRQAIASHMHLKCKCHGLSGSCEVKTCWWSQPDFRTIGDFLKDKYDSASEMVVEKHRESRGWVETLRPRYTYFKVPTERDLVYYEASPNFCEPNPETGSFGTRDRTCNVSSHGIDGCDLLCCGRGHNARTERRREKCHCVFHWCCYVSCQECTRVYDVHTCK

Beta-galactosidase = Beta-galactosidase (Escherichia coli, UniProt Q8VNN2); experiment: detection-enzyme interference by beta-gal modulators – biochemical, E. coli enzyme, set 3, artefact control for CCR6 antagonist project, dose response (AID 504712); assay type: functional
[19] = molecular target: T6, Rac GTPase-activating protein 1 (Homo sapiens, UniProt Q9H0H5); experiment: blockers of MgcRacGAP-driven Rac1 GTP hydrolysis – biochemical, ADP Hunter fluorescence, primary and confirmatory, confirmation (AID 624330); assay type: functional
T6 sequence (Q9H0H5 whole entry): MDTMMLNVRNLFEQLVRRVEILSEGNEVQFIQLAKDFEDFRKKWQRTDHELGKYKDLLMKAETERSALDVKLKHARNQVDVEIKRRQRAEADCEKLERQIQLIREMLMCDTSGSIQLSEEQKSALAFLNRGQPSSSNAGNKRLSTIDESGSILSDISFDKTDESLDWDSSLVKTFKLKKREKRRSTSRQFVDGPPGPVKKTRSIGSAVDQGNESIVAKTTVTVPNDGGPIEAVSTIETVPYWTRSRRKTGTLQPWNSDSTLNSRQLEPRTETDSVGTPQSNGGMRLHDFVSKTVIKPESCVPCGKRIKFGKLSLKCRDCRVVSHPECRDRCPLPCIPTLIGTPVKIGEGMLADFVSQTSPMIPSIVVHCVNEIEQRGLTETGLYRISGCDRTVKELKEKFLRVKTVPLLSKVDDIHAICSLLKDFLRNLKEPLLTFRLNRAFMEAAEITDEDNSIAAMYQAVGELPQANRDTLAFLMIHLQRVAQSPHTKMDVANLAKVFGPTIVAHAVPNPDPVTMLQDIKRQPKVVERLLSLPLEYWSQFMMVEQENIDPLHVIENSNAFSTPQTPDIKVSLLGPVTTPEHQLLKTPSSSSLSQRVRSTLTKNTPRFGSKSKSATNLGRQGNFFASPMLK

[20] = viability loss in HeLa cells – cytotoxicity control for MgcRacGAP inhibitor project, dose response (AID 624300); assay type: functional
[21] = molecular target: T7, Carboxy-terminal domain RNA polymerase II polypeptide A small phosphatase 1 (Homo sapiens, UniProt Q9GZU7); experiment: CTDSP1 inhibitors, concentration-response, biochemical, absorbance readout, ultra-high-throughput screen actives (AID 540297); assay type: functional
T7 sequence (Q9GZU7 whole entry): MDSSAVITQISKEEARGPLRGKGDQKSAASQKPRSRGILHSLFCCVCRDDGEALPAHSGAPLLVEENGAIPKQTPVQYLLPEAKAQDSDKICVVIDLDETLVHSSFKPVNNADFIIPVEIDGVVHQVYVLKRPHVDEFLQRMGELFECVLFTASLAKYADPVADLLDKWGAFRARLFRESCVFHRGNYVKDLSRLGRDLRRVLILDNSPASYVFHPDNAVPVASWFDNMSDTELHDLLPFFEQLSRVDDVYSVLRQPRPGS

[22] = molecular target: Intestinal-type alkaline phosphatase (Homo sapiens, UniProt P09923); experiment: inhibition of human intestinal alkaline phosphatase – biochemical, dose response (AID 488876); assay type: functional
Chain of Intestinal-type alkaline phosphatase (Homo sapiens, UniProt P09923) (P09923 whole entry): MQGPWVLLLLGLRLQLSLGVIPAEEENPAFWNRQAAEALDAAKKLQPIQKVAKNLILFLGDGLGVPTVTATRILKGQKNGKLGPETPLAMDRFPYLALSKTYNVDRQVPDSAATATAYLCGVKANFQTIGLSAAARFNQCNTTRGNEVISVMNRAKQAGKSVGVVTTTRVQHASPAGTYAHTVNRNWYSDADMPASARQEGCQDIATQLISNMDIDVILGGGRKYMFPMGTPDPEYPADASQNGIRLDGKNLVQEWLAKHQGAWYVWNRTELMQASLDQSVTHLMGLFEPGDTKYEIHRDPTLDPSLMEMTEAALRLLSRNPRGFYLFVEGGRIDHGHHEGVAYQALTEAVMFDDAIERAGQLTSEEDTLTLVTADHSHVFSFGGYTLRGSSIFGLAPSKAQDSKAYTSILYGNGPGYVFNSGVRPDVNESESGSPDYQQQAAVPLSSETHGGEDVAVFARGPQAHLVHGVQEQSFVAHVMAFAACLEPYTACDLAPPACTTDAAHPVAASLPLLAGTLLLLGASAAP

[23] = molecular target: T8, Alkaline phosphatase, tissue-nonspecific isozyme (Homo sapiens, UniProt P05186); experiment: TNAP enzyme inhibition by screening hits, dose response, selectivity assay for mouse IAP inhibitor project, biochemical, human TNAP, uHTS hits (AID 488906); assay type: functional
T8 sequence (P05186 whole entry): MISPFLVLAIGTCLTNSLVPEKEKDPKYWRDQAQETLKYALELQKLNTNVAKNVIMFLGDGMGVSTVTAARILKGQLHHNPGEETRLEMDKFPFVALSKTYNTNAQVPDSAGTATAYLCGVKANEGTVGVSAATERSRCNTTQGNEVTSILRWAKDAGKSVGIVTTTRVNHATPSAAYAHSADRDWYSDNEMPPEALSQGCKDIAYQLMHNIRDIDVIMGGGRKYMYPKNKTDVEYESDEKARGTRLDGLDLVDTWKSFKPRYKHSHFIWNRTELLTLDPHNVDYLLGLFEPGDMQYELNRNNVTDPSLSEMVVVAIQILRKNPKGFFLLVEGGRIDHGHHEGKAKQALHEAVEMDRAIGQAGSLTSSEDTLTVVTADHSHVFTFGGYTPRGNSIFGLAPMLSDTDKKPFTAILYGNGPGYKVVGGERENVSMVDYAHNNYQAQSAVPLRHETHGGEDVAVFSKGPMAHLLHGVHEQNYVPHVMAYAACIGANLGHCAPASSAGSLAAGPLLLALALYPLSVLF

[24] = molecular target: Intestinal-type alkaline phosphatase (Mus musculus, UniProt P24822); experiment: PubChem AID 488785; assay type: functional
Chain of Intestinal-type alkaline phosphatase (Mus musculus, UniProt P24822) (P24822 whole entry): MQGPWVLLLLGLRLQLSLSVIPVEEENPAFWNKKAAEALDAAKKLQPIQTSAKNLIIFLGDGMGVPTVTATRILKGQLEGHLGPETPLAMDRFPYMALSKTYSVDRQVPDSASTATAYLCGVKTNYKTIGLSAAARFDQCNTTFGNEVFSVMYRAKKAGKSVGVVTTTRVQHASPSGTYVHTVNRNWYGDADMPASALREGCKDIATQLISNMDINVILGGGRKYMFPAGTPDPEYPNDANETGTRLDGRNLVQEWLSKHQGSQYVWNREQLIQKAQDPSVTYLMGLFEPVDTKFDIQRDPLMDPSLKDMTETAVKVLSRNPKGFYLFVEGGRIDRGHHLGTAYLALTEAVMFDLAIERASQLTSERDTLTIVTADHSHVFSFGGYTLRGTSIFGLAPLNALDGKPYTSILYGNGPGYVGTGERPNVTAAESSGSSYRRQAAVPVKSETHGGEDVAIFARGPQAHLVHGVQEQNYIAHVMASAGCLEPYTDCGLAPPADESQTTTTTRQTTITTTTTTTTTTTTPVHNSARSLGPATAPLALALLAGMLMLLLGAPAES

[25] = molecular target: T9, Protein disulfide-isomerase (Homo sapiens, UniProt P07237); experiment: inhibition of PDI-driven insulin aggregation – biochemical, turbidity, absorbance, cherry-picked samples, dose response (AID 602350); assay type: functional
T9 sequence (P07237 whole entry): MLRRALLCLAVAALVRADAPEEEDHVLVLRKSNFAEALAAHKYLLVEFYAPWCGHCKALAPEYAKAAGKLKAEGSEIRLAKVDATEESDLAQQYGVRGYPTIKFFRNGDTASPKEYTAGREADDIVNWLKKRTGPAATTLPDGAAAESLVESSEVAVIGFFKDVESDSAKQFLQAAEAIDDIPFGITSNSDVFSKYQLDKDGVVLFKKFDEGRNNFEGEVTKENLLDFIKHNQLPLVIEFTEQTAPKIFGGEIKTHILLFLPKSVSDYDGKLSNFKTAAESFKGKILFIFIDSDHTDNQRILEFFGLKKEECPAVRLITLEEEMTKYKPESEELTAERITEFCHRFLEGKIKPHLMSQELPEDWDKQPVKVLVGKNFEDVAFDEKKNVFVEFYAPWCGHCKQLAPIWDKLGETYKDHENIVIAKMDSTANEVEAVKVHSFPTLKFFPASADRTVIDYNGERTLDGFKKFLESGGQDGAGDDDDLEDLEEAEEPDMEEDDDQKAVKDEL

[26] = molecular target: T9, Protein disulfide-isomerase; experiment: inhibition of PDI-mediated insulin reduction – biochemical, turbidity, dry powder samples, set 2, confirmation (AID 652146)

T1 sequence (P65502 whole entry): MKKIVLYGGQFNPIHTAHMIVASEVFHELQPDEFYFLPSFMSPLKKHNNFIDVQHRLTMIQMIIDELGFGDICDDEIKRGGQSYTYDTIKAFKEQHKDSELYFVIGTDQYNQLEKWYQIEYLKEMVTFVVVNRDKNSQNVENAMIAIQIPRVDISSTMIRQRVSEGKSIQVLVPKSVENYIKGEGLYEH

Structure (SMILES): COc1ccc(Br)cc1/C=N/Nc1ccc(S(=O)(=O)Nc2ccccc2C(=O)O)cc1[N+](=O)[O-]
- IC50 [1]: 3.24 µM (active)
- IC50 [2]: 4.47 µM (active)
- IC50 [3]: 19.9 µM (active)
- IC50 [4]: 45.4 µM (inactive)
- IC50 [5]: 2.52 µM (active)
- IC50 [6]: 3.39 µM (active)
- IC50 [7]: 50.6 µM (inactive)

Structure (SMILES): COc1cc(OC)c(OC)cc1/C=N/NC(=O)CC1C(=O)NN=C1C (stereo not given)
- IC50 (Beta-lactamase [8]): > 59.6 µM (inactive)
- IC50 (Beta-lactamase [9]): > 59.6 µM (inactive)
- IC50 (Beta-lactamase [10]): > 59.6 µM (inactive)
- IC50 (Beta Lactamase [11]): 4.22 µM (active)
- IC50 (Beta Lactamase [12]): 1.46 µM (active)

Structure (SMILES): COc1ccc(CN(C)C[C@@H]2Oc3c(NC(=O)Nc4ccc(C(F)(F)F)cc4)cccc3C(=O)N([C@@H](C)CO)C[C@H]2C)cc1
- AC50 [13]: 7.95 µM (active)
- AC50 [14]: 2.27 µM (active)
- AC50 [15]: 11 µM (active)
- AC50 [16]: 16.6 µM (active)
- AC50 [17]: 13.6 µM (active)
- AC50 [18]: 3.5 µM (active)

Structure (SMILES): CCn1c(=O)n(CC)c2cc(N3CCCC3)c(NC(=O)c3ccc(C)cc3)cc21
- AC50 (Vero): 32.2 µM (active)

Structure (SMILES): O=C(C[C@H]1C/C=C\C[C@@H](NC(=O)OCC2c3ccccc3-c3ccccc32)C(=O)O[C@@H](c2ccccc2)CNC1=O)N[C@H](CO)Cc1ccccc1
- IC50 (Protein Wnt-3a): 20.8 µM (inactive)

Structure (SMILES): C=CCOc1ccc(C=NNc2ccc(S(=O)(=O)Nc3ccccc3C(=O)O)cc2[N+](=O)[O-])cc1OC
- IC50 (Beta-galactosidase): > 66.6 µM (inactive)
- IC50 [2]: 14 µM (active)
- IC50 [19]: 65.6 µM (active)
- CC50 [20]: 100 µM (active)
- IC50 [4]: > 66 µM (inactive)
- IC50 [21]: 2 µM (active)
- IC50 [5]: 17.1 µM (active)
- IC50 [6]: 5.32 µM (active)
- IC50 [7]: 51.2 µM (inactive)

Structure (SMILES): O=C(c1c(O)cc(O)cc1O)C1c2c(cc(O)c3c2O[C@H](c2ccc(O)cc2)[C@@H](O)C3)OC1c1ccc(O)cc1 (stereo not given in full) [DIHYDRODAPHNODORIN B]
- IC50 [22]: 18.3 µM (active)
- IC50 [23]: 19.7 µM (active)
- IC50 [24]: 7.21 µM (active)
- AC50 [25]: 19.5 µM (active)

Structure (SMILES): O=C1C[C@@H](c2ccc(O[C@@H]3O[C@H](CO)[C@@H](O)[C@H](O)[C@H]3O)cc2)Oc2cc(O)ccc21 [LIQUIRITIN]
- AC50 [25]: 15.6 µM (active)

Structure (SMILES): C=CCOc1ccc(CN2CCC(CCOc3ccccc3)(C(=O)NC3CCCC3)CC2)cc1Cl
- AC50 [26]: > 30 µM (inactive)
